Reference: article PMC8496086 (RSC Chemical Biology, 2021)

Assays:
[1] = test system: A549 lung carcinoma cells; test: MNA production in A549 cells; type: cell-based, human; details: 1 and 10 μM compound, 100 μM nicotinamide, 10 μM SAM, 1 h
[2] = test system: human aortic endothelial cells (HAEC); test: MNA production in HAEC cells; type: cell-based; details: 1 and 10 μM compound, 100 μM nicotinamide, 10 μM SAM, 3 hours
[3] = test system: NNMT; details: read-out: reported IC50 value; cited from earlier work

## CNc1ccc(C(N)=O)cn1 [Peptide 6-MANA, 6-methylamino-nicotinamide]
[1]
  effect on concentration of MNA: significant reduction of MNA concentration
[2]
  effect on concentration of MNA: significant reduction of MNA concentration
[3]
  IC50: 588 ± 75 nM
